Reference: article PMC7136958, “Targeting the pregnane X receptor using microbial metabolite mimicry” (EMBO Molecular Medicine, 2020)
“And” between values parts separate entries of the source, which are not always exact repeats. Equal entries are not always repeated.

Key:
PPARγ = molecular target: T1, PPARγ (Homo sapiens, UniProt P37231); test: PPARγ reporter assay in PAZ-PPARg cells; assay type: cell-based
T1 construct: endogenous in cells; host or cells: PAZ-PPARg
Method: volume of 20 µl in 384-well black plates, with concentrations of tested compounds in the range from 1 […]
dark, and then fluorescent signals were measured at 495 nm and 520 nm, with the excitation filter 340 nm, on Infinite F200 microplate reader (Tecan Group Ltd, Switzerland). Finally, the TR-FRET ratio was calculated by dividing the emission signal of 520 nm by that at 495 nm. All experiments were done in tetraplicates and as two independent experiments. Final EC50 values were obtained by processing the data with GraphPad Prism 6 using standard curve interpolation (sigmoidal, 4PL, variable slope).
Tr a nscriptional activity of PPARγ was studied in stably transfected reporter cell line PAZ-PPARg 20. Cells were seeded in 96 -well plates, stabilized for 24 h, and then incubated with tested compound. Dimethyl sulfoxide (DMSO; 0.1% v/v) and 15 -deoxy-δ1 2 , 1 4-prostaglandin J2 […]
(Schoeller Instruments, Prague, Czech Republic). The data are expressed as fold induction ± SD of luciferase activity over the control cells. Differences were tested using one-way ANOVA wit h Dunnett’s post hoc test, p < 0.05, was considered significant (*).

NF-κB = NF-κB nuclear translocation (immunofluorescence) in human intestinal organoids; assay type: cell-based; details: 25 μM, with cytokines
Method: HIOs and Caco‐2 were exposed to a pro‐inflammatory cytokine cocktail (10 ng/ml IFN‐γ, 10 ng/ml TNF‐α, 50 ng/ml IL‐1β) for 2–24 h in combination with DMSO or FKK5 and FKK6 compounds (10 and 25 μm). Relative mRNA levels of IL‐8 and IL‐6 were determined using quantitative real‐time PCR, with normalization to GAPDH. RNA was isolated using an RNeasy Mini Kit (Qiagen) as per the manufacturer's instructions. On column DNase (Qiagen) was used to remove any contaminating DNA. Next, cDNA was formed using iScript cDNA Synthesis Kit (Bio‐Rad) and 100 ng RNA. qRT–PCR was performed with SsoAdvanced Universal SYBR Green Kit (Bio‐Rad). The following primers were used: IL‐8 Forward: […]; IL‐8 Reverse: […]; IL‐6 Forward: […]; IL‐6 Reverse: […]; GAPDH Forward: […]; GAPDH Reverse: […]. For immunofluorescent staining of NF‐ĸB translocation to the cell nucleus, HIOs and Caco‐2 cell monolayers were fixed in 4% formaldehyde (in 1 × PBS) overnight at 4°C. The formaldehyde was removed by washing with 1 × PBS, and an antigen retrieval step was performed by incubating in 10 mM sodium citrate buffer in a vegetable steamer for 20 min. The samples were then blocked with normal donkey serum (10% in PBS with 0.3% Triton X‐100) for 1 h. […]

[1] = tested on: ABCC2, UGT1A1, ABCB1, CYP3A4, GSTA1 mRNA; test: PXR target gene mRNA in human duodenal enteroids; details: for ABCB1 (MDR1) mRNA fold change, Mean / ABCC2 mRNA fold change, Mean / CYP3A4 mRNA fold change, Mean / GSTA1 mRNA fold change, Mean / UGT1A1 mRNA fold change, Mean: 10 μM, 24 h, n=3
Method: Discarded duodenum tissue after surgery was obtained and used to isolate crypts. Embedded crypts in Matrigel formed 3D structures referred to as “enteroids”. […] DMSO was added to enteroids as a negative control. After incubation for 24 h, enteroids were collected in RNA‐free tube followed by breaking down Matrigel by pipetting vigorously (using 1 ml PBS). The enteroids were pelleted at 16,000 g for 3 min (4°C). RNA was extracted using miRNA isolation kit (Invitrogen; #AM1561) using the protocol provided by Invitrogen. […] PowerUp SYBR Green (Applied Biosystem, #A25742) was used for RT–PCR and performed 40 cycles using Quant Studio3 (Invitrogen, #A28132).

S. typhimurium 14038 = test: Salmonella invasion (gentamicin protection assay) in Caco-2 monolayers; assay type: cell-based, Salmonella typhimurium; details: for cytokine-induced salmonella invasion: 10 and 25 μM, vs cytokines only; for Salmonella CFU/ml: Caco-2 cells, triplicate
Method: FKK compounds were tested for their ability to prevent Salmonella invasion in vitro in non‐inflamed and inflamed cell cultures. Overnight cultures of S. typhimurium 14038 were diluted to OD600 0.01 and injected into with HIOs or immersed over Caco‐2 monolayers for 1 h at 37°C. The invasive ability of Salmonella was assessed using the gentamicin protection assay (Gagnon et al, 2013). Bacterial adhesion scenarios to the Caco‐2 surface were set up as described above. Non‐adhered bacteria were removed by washing twice in PBS, followed by incubation with 1 ml gentamicin (150 μg/ml in DMEM) for 1 h at 37°C to kill the adhered extracellular bacteria. Dead bacteria were removed by washing twice in PBS, followed by incubation with 500 μl 0.1% Triton X‐100 for 15 min at 37°C to lyse the HIOs and Caco‐2, and release the intracellular (invaded) bacteria. Serial fold dilutions and plating were then employed to determine CFU/ml. We normalized to total protein using Bradford assay.

[2] = compound 10µm, no cytokines, 6 hr
[3] = compound 10µm, no cytokines, 12 hr
[4] = compound 25µm, no cytokines, 6 hr
[5] = cytokines + compound 10µm, 6 hr
[6] = cytokines + compound 25µm, 6 hr
[7] = cytokines + compound 25µm, 12 hr

T1 sequence (P37231 whole entry): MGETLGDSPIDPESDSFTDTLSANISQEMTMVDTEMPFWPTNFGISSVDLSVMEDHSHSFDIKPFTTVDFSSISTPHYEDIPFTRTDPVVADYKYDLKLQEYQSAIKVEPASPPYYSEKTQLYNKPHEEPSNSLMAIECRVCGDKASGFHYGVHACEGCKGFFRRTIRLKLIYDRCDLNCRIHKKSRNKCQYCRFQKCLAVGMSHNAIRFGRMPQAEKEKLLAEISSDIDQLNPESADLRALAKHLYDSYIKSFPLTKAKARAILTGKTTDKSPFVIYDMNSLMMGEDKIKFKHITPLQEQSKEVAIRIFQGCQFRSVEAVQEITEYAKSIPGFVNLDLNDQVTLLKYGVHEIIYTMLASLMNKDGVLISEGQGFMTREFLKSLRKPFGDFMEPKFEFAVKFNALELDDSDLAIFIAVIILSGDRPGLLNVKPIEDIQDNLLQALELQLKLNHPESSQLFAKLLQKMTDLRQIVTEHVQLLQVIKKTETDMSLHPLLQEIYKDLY

SMILES	PPARγ ligand agonist activity (PPARγ)	NF-κB localisation (NF-κB)	PXR target gene induction (in words) [1]	ABCB1 (MDR1) mRNA fold change, Mean [1]	ABCC2 mRNA fold change, Mean [1]	CYP3A4 mRNA fold change, Mean [1]	GSTA1 mRNA fold change, Mean [1]	UGT1A1 mRNA fold change, Mean [1]	cytokine-induced salmonella invasion (S. typhimurium 14038)	Salmonella CFU/ml (S. typhimurium 14038; [2])	Salmonella CFU/ml (S. typhimurium 14038; [3])	Salmonella CFU/ml (S. typhimurium 14038; [4])	Salmonella CFU/ml (S. typhimurium 14038; [5])	Salmonella CFU/ml (S. typhimurium 14038; cytokines + compound 10µm, 12 hr)	Salmonella CFU/ml (S. typhimurium 14038; [6])	Salmonella CFU/ml (S. typhimurium 14038; [7])	salmonella invasion, compound alone (S. typhimurium 14038; no cytokines)	Salmonella CFU/ml (S. typhimurium 14038; compound 25µm, no cytokines, 12 hr)
O=C(c1ccncc1)c1cc2ccccc2n1S(=O)(=O)c1ccccc1 [FKK5, (1-(phenylsulfonyl)-1H-indol-2-yl)(pyridin-4-yl)methanone]	did not observe any significant ligand agonist activity	increased cytoplasmic	significantly induced	2.409 fold	4.345 fold	2.034 fold	4.61 fold	1.773 fold	significantly decreased	5980 CFU/ml and 4820 CFU/ml and 5870 CFU/ml	5920 CFU/ml and 4240 CFU/ml and 5520 CFU/ml	4940 CFU/ml and 4950 CFU/ml and 4400 CFU/ml	5800 CFU/ml and 5710 CFU/ml and 4100 CFU/ml	2240 CFU/ml and 4480 CFU/ml and 4320 CFU/ml	3700 CFU/ml and 3900 CFU/ml and 3270 CFU/ml	3040 CFU/ml and 3240 CFU/ml and 2560 CFU/ml	No significant effect	
C#CCC(O)(c1ccncc1)c1cc2ccccc2n1S(=O)(=O)c1ccccc1 (stereo not shown) [FKK6]	did not observe any significant ligand agonist activity	increased cytoplasmic	significantly induced	3.883 fold	4.029 fold	1.665 fold	1.768 fold	2.472 fold	significantly decreased	3008 CFU/ml and 3000 CFU/ml and 1800 CFU/ml	1840 CFU/ml and 3520 CFU/ml and 2960 CFU/ml	2076 CFU/ml and 2290 CFU/ml and 2980 CFU/ml	2276 CFU/ml and 2820 CFU/ml and 1500 CFU/ml		1940 CFU/ml and 1870 CFU/ml and 1600 CFU/ml	2520 CFU/ml and 1360 CFU/ml	No significant effect	1360 CFU/ml and 2480 CFU/ml and 2320 CFU/ml
